Reference: patent publication EP0362382A1, “METHOD OF STERILIZING PLANT POLLEN” (VSESOJUZNY NAUCHNO-ISSLEDOVATELSKY INST. SELSKOKHOZYAISTV. …, priority 1988, dated 1989)

tested on: Winterweizen; assay: Field test of gametocidal activity (sterilisation of anthers), winter wheat; assay type: in vivo; details: Gordeiforme 12303; V. Periode der Organogenese; 2%ige wäßrige Emulsion; 16 kg/ha
Description: (§1) Die gametozide Aktivitat der erfindungsgemäßen Sterilisationsmittel war im Feldversuch in verschiedenen bodenklimatischen Zonen mit Teilstücken von 10 m^2 Größe in drei- bis viermaliger Wiederholung festgestellt. Jedes Sterilisationsmittel wurde mindenstens 5 Jahre lang geprüft.
(§2) Die Entwicklung der Perioden der Organogenese wird zytologisch überwacht. Die Behandlung von Pflanzen mit dem Sterilisationsmittel erfolgt am Anfang der fünften Periode der Organogenese nach Kupermann.
(§3) Mit dem Ährenschieben verwirklicht man die Isolierung von Hauptähren und anderen Stockwerken in Pergamentbeuteln. Bei Weizen und Tritikale werden Einzelisolatoren benutzt. Bei Roggen schließt man je Ähre 5 bis 7 verschiedene nebeneinander befindliche Pflanzen unter einen gemeinsamen Isolator ein. Bei Hierse wird jede Rispe getrennt isoliert. Der Sterilitätsprozentsatz (X) für Weizen, Roggen, Tritikale und Hirse wird nach der Formel [formula] ermittelt.
(§4) Die Kornzahl in nicht isolierten Ähren von Kontrollpflanzen wird bedingt für 100 % Ansetzen bei freier Bestäubung angenommen.
(§5) Um zuverlässige Angaben zu erhalten, verwendet man 20 bis 25 Isolatoren jeder Wiederholung für Weizen und Tritikale, 10 .bis 15 Isolatoren jeder Wiederholung für Roggen und Hirse.
Pflanzen des Winterweizens Sorte Mironowskaja 808 werden in der V. Periode der Organogenese durch Zerstäubung der 2%igen wäßrigen Emulsion der δ, δ' -Thiodivaleriansäure mit Hilfe einer Rückenspritze behandelt. Als Emulgiermittel wird 0,1 Masse% Kalziumalkylbenzalsulfonat mit 12 bis 14 Kohlenstoffatomen hinzugefügt. Als Adjuvans führt man in die Emulsion 0,01 Masse% Dimethylsulfoxid ein. Der Verbrauch an Präparat beträgt 20 kg/ha. Als Kontrolle dienen Pflanzen, behandelt mit einem Verdünner ohne Sterilisationsmittel. Die Ergebnisse sind in der Tabelle 1 angegeben. […] Periode der Organogenese erhalten.
Der Prozeß erfolgt analog zu dem im Beispiel 1 bescnriebenen. Als Sterilisationsmittel benutzt man 2%ige wäßrige Emulsion von Natriumsalz der δ, δ'-Thiodivaleriansäure, δ, δ' -Sulfonyldivaleriansäure, Natriumsalz der δ, δ' -Sulfonyldivaleriansäure, Kaliumsalz der δ, δ'--Sulfonyldivaleriansäure, Bis(di-n-butyläther) der δ, δ'--Thiodivaleriansäure, 4-Karboxybutyldezylsulfid bzw.
Pflanzen des Winterweizens Sorte Korall werden in der V. Periode der Organogenese (nach Kupermann) mit 2%iger wäßriger Emulsion von Bis(2-äthylhexyläther) der δ, δ' --Thiodivaleriansäure, 4-Karboxybutyldezylsulfid bzw. Bis(di--n-butyläther) der δ, δ' -Thiodivalerianqäure behandelt. Die Emulsion enthält 0,1 Masse% Kalziumalkylbenzolsulfonat mit 12 bis 14 Kohlenstoffatomen und 0,01 Masse% Dodezylsulfat. Der Verbrauch an Präparat beträgt 12 kg/ha. Als Kontrolle dienen Pflanzen, behandelt mit einem Verdünner ohne Sterilisationsmittel. Die Prüfergebnisse sind in der Tabelle 2 angegeben.
Pflanzen des Winterweizens Gordeiforme 12303 werden in der V. Periode der Organogenese (nach Kupermann) mit 2%iger wäßriger Emulsion von 4-Karboxybutyldezylsulfid, Bis(2-äthylhexyläther) der δ, δ' -Thiodivaleriansäure, δ, δ' -Sulfonyldivaleriansäure behandelt. Die Emulsion enthält als Emulgiermittel 0,1 Masse% Kalziumalkylbenzolsulfonat mit 12 bis 14 Kohlenstoffatomen und 0,01 Masse% Dimethylformamid. Der Verbrauch an Präparat beträgt 16 kg/ha. Als Kontrolle dienen Pflanzen, behandelt mit einem Verdünner ohne Sterilisationsmittel.

Molecule | Anzahl von Körnern der Ähre bei freier Bestäubung | Anzahl von Körnern der Ähre im Isolator | Prozentsatz der Sterilität | Prozentsatz des Ansetzens von Körnern bei freier Bestäubung
CCCCCCCCCCSCCCCC(=O)O [Beispiel 12, 4-Karboxybutyldezylsulfid] | 21,6 | 0,0 | 100,0% | 74,2%
CCCCC(CC)COC(=O)CCCCSCCCCC(=O)OCC(CC)CCCC (centres unmarked) [Beispiel 13, Bis(2-äthylhexyläther) der δ, δ' -Thiodivaleriansäure] | 25,3 | 0,0 | 100,0% | 86,9%
O=C(O)CCCCS(=O)(=O)CCCCC(=O)O [Beispiel 14, δ, δ' -Sulfonyldivaleriansäure] | 23,6 | 0,1 | 99,7% | 81,1%

same assay, conditions: Sorte Korall; V. Periode der Organogenese; 2%ige wäßrige Emulsion; 12 kg/ha

Molecule | Anzahl von Körnern der Ähre bei freier Bestäubung | Anzahl von Körnern der Ähre im Isolator | Prozentsatz der Sterilität | Prozentsatz des Ansetzens von Körnern bei freier Bestäubung
CCCCC(CC)COC(=O)CCCCSCCCCC(=O)OCC(CC)CCCC (centres unmarked) [Beispiel 9, Bis(2-äthylhexyläther) der δ, δ' --Thiodivaleriansäure] | 30,8 | 0,0 | 100,0% | 95,1%
CCCCCCCCCCSCCCCC(=O)O [Beispiel 10, 4-Karboxybutyldezylsulfid] | 29,1 | 0,1 | 99,5% | 89,8%
Bis(di--n-butyläther) der δ, δ' -Thiodivalerianqäure [Beispiel 11] | 30,2 | 0,1 | 99,5% | 93,2%

same assay, conditions: Sorte Mironowskaja 808; V. Periode der Organogenese; 2%ige wäßrige Emulsion; 20 kg/ha

Molecule | Anzahl von Körnern der Ähre bei freier Bestäubung | Anzahl von Körnern der Ähre im Isolator | Prozentsatz der Sterilität | Prozentsatz des Ansetzens von Körnern bei freier Bestäubung
O=C([O-])CCCCS(=O)(=O)CCCCC(=O)[O-].[Na+].[Na+] [Beispiel 4, Natriumsalz der δ, δ' -Sulfonyldivaleriansäure] | 34,1 | 0,1 | 99,8% | 82,8%
O=C([O-])CCCCS(=O)(=O)CCCCC(=O)[O-].[K+].[K+] [Beispiel 5, Kaliumsalz der δ, δ'--Sulfonyldivaleriansäure] | 40,7 | 0,1 | 99,8% | 98,8%
CCCCCCCCCCSCCCCC(=O)O [Beispiel 7, 4-Karboxybutyldezylsulfid] | 35,6 | 0,0 | 100,0% | 86,4%
CCCCC(CC)COC(=O)CCCCSCCCCC(=O)OCC(CC)CCCC (centres unmarked) [Beispiel 8] | 36,1 | 0,0 | 100,0% | 87,6%
O=C(O)CCCCSCCCCC(=O)O [Beispiel I, δ, δ' -Thiodivaleriansäure] | 37,0 | 0,5 | 98,8% | 89,8%
Bis(di-n-butyläther) der δ, δ'--Thiodivaleriansäure [Beispiel 6] | 34,8 | 0,0 | 100,0% | 84,5%

tested on: diploidem Roggen; assay: Field test of gametocidal activity (sterilisation of anthers), diploid rye; assay type: in vivo; details: Sorte Gibrid 1861/79; V. und VI. Periode der Organogenese; 1%ige wäßrige Emulsion; 8 kg/ha
Description: as §1, §2, §3, §4, §5
Pflanzen von diploidem Roggen Sorte Wosohod 2 werden in der V. Periode der Organogenese (nach Kupermann) mit 1%iger wäßriger Emulsion von Bis(di-n-butyläther) der δ, δ' -Thiodivaleriansäure, 4-Krboxybutyldezylsulfid, Natriumsalz der δ, δ' -Thiodivaleriansäure, Bis(2-äthylhexyläther) der δ, δ' -Thiodivaleriansäure, δ, δ' -Sulfonyldivaleriansäure, Natriumsalz der δ, δ'-Sulfonyldivaleriansäure, Kaliumsalz der δ, δ' -Sulfonyldivaleriansäure behandelt. Die Emulsion enthält 0,1 Masse% […] mit 12 bis 14 Kohlenstoffatomen und 0,01 Masse% Tetrahydrofuran. Der Verbrauch an Präparat beträgt 6 kg/ha. Als Kontrolle dienen Pflanzen, behandelt mit einem Verdünner ohne Sterilisationsmittel.
Pflanzen von diploidem Roggen Sorte Gibrid 1861/79 werden in der V. und VI. Periode der Organogenese (nach Kupermann) mit 1%iger wäßriger Emulsion von Bis(di-n-butyläther) der δ, δ' -Thiodivaleriansäure, δ, δ' -Thiodivaleriansäure, Natriumsalz der δ δ' -Thiodivaleriansäure, 4-Karboxybutyldezylsulfid, δ , δ' -Sulfonyldivaleriansäure, Kaliumsalz der δ, δ' -Sulfonyldivaleriansäuleriansäure, Kaliumalz der δ' -Sulfonyldivaleriansäure, Bis(2-äthylhexyläther) der δ, δ' -Thiodivaleriansäure behandelt. Die Emulsion enthält 0,1 Masse% Kalziumalkylbenzolsulfonat mit 12 bis 14 Kohlenstoffatomen und 0,01 Masse% Dimethylformamid. Der Verbrauch an Präparat beträgt 8 kg/ha. Als Kontrolle dienen Pflanzen, behandelt mit einem Verdünner ohne Sterilisationsmittel. Die Prüfergebnisse sind in der Tabelle 10 angegeben.

Molecule | Anzahl von Körnern der Ähre bei freier Bestäubung | Anzahl von Körnern der Ähre im Isolator | Prozentsatz der Sterilität | Prozentsatz des Ansetzens von Körnern bei freier Bestäubung
CCCCOC(=O)CCCCSCCCCC(=O)OCCCC [Beispiel 44, Bis(di-n-butyläther) der δ, δ' -Thiodivaleriansäure] | 60,0 | 0,0 | 100,0% | 95,5%
O=C(O)CCCCSCCCCC(=O)O [Beispiel 45, δ, δ' -Thiodivaleriansäure] | 58,6 | 0,1 | 99,8% | 93,3%
O=C(O)CCCCSCCCCC(=O)O [Beispiel 46, Natriumsalz der δ δ' -Thiodivaleriansäure] | 57,1 | 0,1 | 99,8% | 90,9%
CCCCCCCCCCSCCCCC(=O)O [Beispiel 47, 4-Karboxybutyldezylsulfid] | 52,8 | 0,0 | 100,0% | 84,1%

same assay, conditions: Sorte Wosohod 2; V. Periode der Organogenese; 1%ige wäßrige Emulsion; 6 kg/ha

Molecule | Anzahl von Körnern der Ähre bei freier Bestäubung | Anzahl von Körnern der Ähre im Isolator | Prozentsatz der Sterilität | Prozentsatz des Ansetzens von Körnern bei freier Bestäubung
CCCCOC(=O)CCCCSCCCCC(=O)OCCCC [Beispiel 37, Bis(di-n-butyläther) der δ, δ' -Thiodivaleriansäure] | 50,9 | 0,0 | 100,0% | 93,2%
CCCCCCCCCCSCCCCC(=O)O [Beispiel 38, 4-Krboxybutyldezylsulfid] | 50,5 | 0,0 | 100,0% | 92,5%
O=C(O)CCCCSCCCCC(=O)O [Beispiel 39, Natriumsalz der δ, δ' -Thiodivaleriansäure] | 50,5 | 0,1 | 99,8% | 92,5%
CCCCC(CC)COC(=O)CCCCSCCCCC(=O)OCC(CC)CCCC (centres unmarked) [Beispiel 40, Bis(2-äthylhexyläther) der δ, δ' -Thiodivaleriansäure] | 52,9 | 0,0 | 100,0% | 96,9%
O=C(O)CCCCS(=O)(=O)CCCCC(=O)O [Beispiel 41, δ, δ' -Sulfonyldivaleriansäure] | 48,4 | 0,1 | 99,8% | 88,6%
O=C(O)CCCCS(=O)(=O)CCCCC(=O)O [Beispiel 42, Natriumsalz der δ, δ'-Sulfonyldivaleriansäure] | 47,4 | 0,1 | 99,8% | 86,8%
O=C(O)CCCCS(=O)(=O)CCCCC(=O)O [Beispiel 43, Kaliumsalz der δ, δ' -Sulfonyldivaleriansäure] | 53,8 | 0,6 | 98,8% | 98,5%
